This is an account of results in patent US6603044B1, “Phthalamide derivatives, or salt thereof agrohorticultural insecticide, and method for using the same” (Nihon Nohyaku Co., Ltd., priority 1998, dated 2003).

Type in all cases: in vivo
Data set [1] deals with Diamond Back Moth (Plutella xylostella). The data set can be described thus: Insecticidal effect on diamond back moth (Test Example 1). The settings on record: 50 ppm; Chinese cabbage seedling with deposited eggs immersed about 30 seconds; 25° C.; six days after the immersion. In short, it runs like this:
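Chinese cabbage seedlings carrying two-day-old eggs were dipped about 30 seconds in a 50 ppm dilution of formulated compound, air-dried and kept at 25° C. Hatched larvae were counted six days later to derive mortality, with triplicate groups of 10 insects.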

Data set [2] deals with Smaller tea Tortrix (Adoxophyes sp.). The data set can be described thus: Insecticidal effect on smaller tea tortrix (Test Example 3). As to conditions: 50 ppm; tea leaf immersed 30 seconds; larvae; 25° C., humidity 70%; eight days after the inoculation. The method, then: Insecticidal Effect on Smaller tea Tortrix (Adoxophyes sp.)
A leaf of tea tree was immersed for 30 seconds in a liquid chemical containing each compound listed in Table 1, 2 or 3 as an active ingredient to adjust the concentration to 50 ppm. After air-dryness, the leaf was transferred to a plastic dish with a diameter of 9 cm and inoculated with larval smaller tea tortrix. Then, the leaf was allowed to stand in a room thermostatted at 25° C. at a humidity of 70%. Eight days after the inoculation, the dead and alive were counted, and the insecticidal effect was judged according to the same criterion as mentioned in Test Example 1. The test was carried out with triplicate groups of 10 insects.

Data set [3] concerns Common Cutworm (Spodoptera Litura). The data set can be described thus: Insecticidal effect on common cutworm (Test Example 2). The settings on record: 50 ppm; cabbage leaf immersed about 30 seconds; second-instar larvae; 25° C.; eight days after the inoculation. The text has this:
Insecticidal Effect on Common Cutworm (Spodoptera Litura)
A piece of cabbage leaf (cultivar; Shikidori) was immersed for about 30 seconds in a liquid chemical prepared by diluting a preparation containing each compound listed in Table 1, 2 or 3 as an active ingredient to adjust the concentration to 50 ppm. After air-dryness, it was placed in a plastic Petri dish with a diameter of 9 cm and inoculated with second-instar larvae of common cutworm, after which the dish was closed and then allowed to stand in a room thermostatted at 25° C. Eight days after the inoculation, the dead and alive were counted. The mortality was calculated according to the following equation and the insecticidal effect was judged according to the criterion shown in Test Example 1. The test was carried out with triplicate groups of 10 insects. [formula]

SMILES strings stand for the structures.

Regarding `CSCCC(C)NC(=O)c1cccc(I)c1C(=O)Nc1ccc(C(F)(C(F)(F)F)C(F)(F)F)cc1C` (stereo not drawn) [Compound No. 162, 6-Iodo-N^1-(4-heptafluoroisopropyl-2-methylphenyl)-N^2-(1-methyl-3-methylthiopropyl)phthalamide], the “Test Example 1 insecticidal effect (mortality)” value in data set [1] was “A (100)”. In addition, in data set [2], the “Test Example 3 insecticidal effect (mortality)” value was “A (100)”. Further, the “Test Example 2 insecticidal effect (mortality)” value in data set [3] was “A (100)”.
Take `CSCCC(C)NC(=O)c1c(I)cccc1C(=O)Nc1ccc(C(F)(C(F)(F)F)C(F)(F)F)cc1C` (stereo not drawn) [Compound No. 195, 3-Iodo-N^1-(4-heptafluoroisopropyl-2-methylphenyl)-N^2-(1-methyl-3-methylsulfenylpropyl)-phthalamide]: in data set [1], the “Test Example 1 insecticidal effect (mortality)” value is “A (100)”. The “Test Example 3 insecticidal effect (mortality)” value in data set [2] is listed as “A (100)”. For the same compound, the “Test Example 2 insecticidal effect (mortality)” value in data set [3] is reported as “A (100)”.
Regarding `Cc1cc(C(F)(C(F)(F)F)C(F)(F)F)ccc1NC(=O)c1cccc(I)c1C(=O)NC(C)CCS(C)(=O)=O` (stereo not drawn) [Compound No. 196, 3-Iodo-N^1-(4-heptafluoroisopropyl-2-methylphenyl)-N^2-(1-methyl-3-methylsulfonylpropyl)-phthalamide], the “Test Example 1 insecticidal effect (mortality)” value in data set [1] was “A (100)”. Further, the “Test Example 3 insecticidal effect (mortality)” value in data set [2] was “A (100)”. Further, the “Test Example 2 insecticidal effect (mortality)” value in data set [3] was “A (100)”.
As for `CSCC(C)NC(=O)c1c(OC(F)(F)F)cccc1C(=O)Nc1ccc(C(F)(C(F)(F)F)C(F)(F)F)cc1C` (stereo not drawn) [Compound No. 210, N^1-(4-Heptafluoroisopropyl-2-methylphenyl)-N^2-3-(1-methyl-2-methylthioethyl)-3-trifluoromethoxyphthalamide], the “Test Example 1 insecticidal effect (mortality)” value in data set [1] is listed as “A (100)”. The “Test Example 3 insecticidal effect (mortality)” value in data set [2] is “A (100)”. Further, in data set [3], the “Test Example 2 insecticidal effect (mortality)” value is listed as “A (100)”.
For the compound `CSCC(C)(C)NC(=O)c1c(F)cccc1C(=O)Nc1ccc(OC(F)(F)F)cc1Cl` [compound 385], the “Test Example 1 insecticidal effect (mortality)” value in data set [1] is “A (100)”. In addition, the “Test Example 2 insecticidal effect (mortality)” value in data set [3] is recorded as “C (89-80)”.
Taken in the same sequence, the figures for `Cc1cc(Oc2ncc(C(F)(F)F)cc2Cl)ccc1NC(=O)c1cccc(I)c1C(=O)NC(C)C[S+](C)[O-]` (stereo not drawn) [compound 410] were “A (100)” and “A (100)”.
The corresponding values for `CNC(=S)SCC(C)NC(=O)c1c(I)cccc1C(=O)Nc1ccc(C(F)(C(F)(F)F)C(F)(F)F)cc1C` (stereo not drawn) [compound 425] are “A (100)” and “A (100)”.
